Target: T1, cathepsin K (Homo sapiens, UniProt P43235)
T1 sequence (P43235 115-329): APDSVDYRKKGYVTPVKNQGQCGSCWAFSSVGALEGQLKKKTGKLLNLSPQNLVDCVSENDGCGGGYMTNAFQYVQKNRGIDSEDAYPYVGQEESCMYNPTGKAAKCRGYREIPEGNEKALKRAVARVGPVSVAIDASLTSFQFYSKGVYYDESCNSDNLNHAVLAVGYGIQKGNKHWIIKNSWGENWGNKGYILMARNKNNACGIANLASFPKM
Assay: Determination of cathepsin K proteolytic catalytic activity; inhibition studies (progress curve method)
Assay type: biochemical
Details: human recombinant enzyme, fluorogenic substrate Cbz-Phe-Arg-AMC, pH 5.5
Description: Determination of cathepsin K proteolytic catalytic activity
All assays for cathepsin K were carried out with human recombinant enzyme. Standard assay conditions for the determination of kinetic constants used a fluorogenic peptide substrate, typically Cbz-Phe-Arg-AMC, and were determined in 100 mM Na acetate at pH 5.5 containing 20 mM cysteine and 5 mM EDTA. Stock substrate solutions were prepared at concentrations of 10 or 20 mM in DMSO with 20 uM final substrate concentration in the assays. All assays contained 10% DMSO. […] All assays were conducted at ambient temperature. Product fluorescence (excitation at 360 nm; emission at 460 nm) was monitored with a Perceptive Biosystems Cytofluor II fluorescent plate reader. […]
Potential inhibitors were evaluated using the progress curve method. […] For those compounds whose progress curves were linear, apparent inhibition constants (Ki,app) were calculated according to equation 1 (Brandt et al., Biochemitsry, 1989, 28, 140): […]
[AMC]=νSSt+(ν0−νSS) [I−exp(−kobst)]/kobs (2) where [AMC] is the concentration of product formed over time t, ν0 is the initial reaction velocity and νSS is the final steady state rate. Values for kobs were then analyzed as a linear function of inhibitor concentration to generate an apparent second order rate constant (kobs/inhibitor concentration or kobs/[1]) describing the time-dependent inhibition. […]

Ki: > 10 µM
SMILES: CC(C)C[C@H](NS(=O)(=O)c1cccc2cccnc12)C(=O)NC1COCC1=O (mixture of isomers) [4-(R,S)-Amino-N-[(8-quinolinesulfonyl)-S-leucine]-3-tetrahydrofuran-3-one]

Source: patent US20040180927A1, “Inhibitors of cysteine protease” (SmithKline Beecham Corporation, priority 1996, published 2004)
